# Measurements taken from ChEMBL document CHEMBL5233255, “Natural and nature-inspired stilbenoids as antiviral agents” (Eur J Med Chem, 2020).
# Key:
# [1] = system: Influenza A virus; test: Antiviral activity against influenza A virus A/Guangdong/243/72 ([…]) infected in MDCK cells assessed as inhibition of virus-induced cytopathic effect; format: functional, organism-based
# [2] = Selectivity index, ratio of CC50 for cytotoxicity against MDCK cells to IC50 for influenza A virus A/Guangdong/243/72 ([…]) infected in MDCK cells; format: toxicity, cell-based; conditions: dog, read-out: Ratio CC50/IC50
# [3] = Inhibition of HIV-1 integrase catalysed 3' processing activity by densitometric analysis; set-up: species or system Human immunodeficiency virus 1
# [4] = Inhibition of recombinant HIV-1 integrase catalysed strand transfer activity measured after 60 mins by electrochemiluminescent plate-based assay; set-up: species or system Human immunodeficiency virus 1
# [5] = system: Human immunodeficiency virus 1; test: Antiviral activity against HIV-1 infected in HEK293T cells; format: functional, organism-based; conditions: Human immunodeficiency virus 1, HEK-293T
# [6] = system: Human immunodeficiency virus 1; test: Antiviral activity against VSV pseudo-typed HIV-1 infected in human MT4 cells expressing eGFP under control of HIV-1 LTR promoter sequence; format: functional, organism-based; conditions: Human immunodeficiency virus 1, MT4
# [7] = Cytotoxicity against human MT4 cells expressing eGFP under control of HIV-1 LTR promoter sequence; format: toxicity, cell-based
# [8] = Selectivity index, ratio of CC50 for cytotoxicity against human MT4 cells expressing eGFP under control of HIV-1 LTR promoter sequence to EC50 for antiviral activity against HIV-1 infected in human MT4 cells expressing eGFP under control of HIV-1 LTR promoter sequence; format: toxicity, cell-based; conditions: read-out: Ratio CC50/EC50
# [9] = Cytotoxicity against HEK293T cells; format: toxicity, cell-based, HEK-293T; conditions: human, read-out: TC50 (the source's name)
# [10] = system: Influenza A virus; test: Antiviral activity against influenza A virus A/PR/8/34 (H1N1) infected in human A549 cells assessed as inhibition of RANTES production incubated for 48 hrs by ELISA; format: functional, organism-based; conditions: A549, 48 h
# [11] = Cytotoxicity against human A549 cells assessed as reduction in cell viability by Alamar blue assay; format: toxicity, cell-based
# [12] = Cytotoxicity against human C8166 cells assessed as inhibition of cell growth by MTT assay; format: toxicity, cell-based
# [13] = system: Human immunodeficiency virus 1; test: Antiviral activity against HIV-1 infected in human C8166 cells assessed as inhibition of viral replication; format: functional, organism-based; conditions: Human immunodeficiency virus 1, C8166
# [14] = Therapeutic index, ratio of CC50 for cytotoxicity against human C8166 cells to EC50 for antiviral activity against HIV-1 infected in C8166 cells; format: toxicity, cell-based; conditions: read-out: Ratio CC50/EC50
# [15] = Cytotoxicity against HCV RNA-transfected human Huh7.5 cells assessed as reduction in cell viability; format: toxicity, cell-based, Huh-7.5; conditions: HCV RNA-transfected Huh7.5 cells
# [16] = system: Hepatitis C virus; test: Antiviral activity against Hepatitis C virus genotype 2 infected in renilla luciferase-J6/JFH1 RNA-transfected human Huh7.5 cells assessed as reduction in viral replication incubated for 72 hrs by qRT-PCR analysis; format: functional, organism-based, Hepacivirus hominis; conditions: genotype 2, Huh7.5, 72 h
# [17] = system: Hepatitis C virus; test: Antiviral activity against Hepatitis C virus genotype 1 infected in Bart79I RNA-transfected human Huh7.5 cells assessed as reduction in viral replication incubated for 24 to 72 hrs by RT-PCR assay; format: functional, organism-based, Hepacivirus hominis; conditions: genotype 1, Huh7.5
# [18] = system: Hepatitis C virus; test: Antiviral activity against Hepatitis C virus genotype 2 infected in human Huh7.5 cells assessed as reduction in viral replication by RT-PCR assay; format: functional, organism-based, Hepacivirus hominis; conditions: genotype 2, Huh7.5
# [19] = system: Hepatitis C virus; test: Antiviral activity against Hepatitis C virus infected in human Huh7.5 cells assessed as reduction in viral replication; format: functional, organism-based, Hepacivirus hominis
# [20] = Cytotoxicity against human Huh7.5 cells infected with Hepatitis C virus assessed as reduction in cell viability; format: toxicity, cell-based, Huh-7.5
# [21] = system: Human alphaherpesvirus 1; test: Antiviral activity against HSV-1 15577 infected in African green monkey Vero cells incubated for 3 days by plaque reduction assay; format: functional, organism-based; conditions: Human alphaherpesvirus 1, 15577, Vero, 72 h
# [22] = system: Human alphaherpesvirus 1; test: Antiviral activity against HSV-1 clinical isolate infected in African green monkey Vero cells incubated for 3 days by plaque reduction assay; format: functional, organism-based; conditions: Human alphaherpesvirus 1, Vero, 72 h
# [23] = system: Human alphaherpesvirus 2; test: Antiviral activity against HSV-2 333 infected in African green monkey Vero cells incubated for 3 days by plaque reduction assay; format: functional, organism-based; conditions: Human alphaherpesvirus 2, 333, Vero, 72 h
structure (smiles),measurement,setting,value
COc1cc(/C=C/c2cc(O)cc(O)c2)ccc1O,IC50,[1],4.28 µg/mL
same,selectivity ratio,[2],8.99
Nc1ccc(/C=C/c2ccc(N)cc2S(=O)(=O)O)c(S(=O)(=O)O)c1,IC50,[3],> 111 µM
same,IC50,[4],> 111 µM
Oc1cc(O)cc(-c2ccc3cc(O)ccc3c2)c1,EC50,[5],> 75 µM
O=C(/C=C/c1ccc(O)cc1)c1cc(O)cc(O)c1,EC50,[5],> 75 µM
Oc1ccc(-n2cc(-c3cc(O)cc(O)c3)nn2)cc1,EC50,[5],> 75 µM
O=S(=O)(O)c1cc(/N=N/c2cc(S(=O)(=O)O)c3ccccc3c2O)ccc1/C=C/c1ccc(/N=N/c2cc(S(=O)(=O)O)c3ccccc3c2O)cc1S(=O)(=O)O,IC50,[3],0.32 µM
same,IC50,[4],0.18 µM
same,EC50,[6],3.07 µM
same,CC50,[7],59 µM
same,selectivity ratio,[8],19.2
O=[N+]([O-])c1ccc(/C=C/c2ccc([N+](=O)[O-])cc2S(=O)(=O)O)c(S(=O)(=O)O)c1,IC50,[3],> 111 µM
same,IC50,[4],> 111 µM
Oc1cc(O)cc(-c2ccc(-c3ccncc3)cc2)c1,EC50,[5],> 100 µM
Oc1cc(O)cc(-c2ccc3cnccc3c2)c1,EC50,[5],> 75 µM
Oc1ccc(-c2c(-c3cc(O)cc(O)c3)oc3ccccc23)cc1,CC50,[9],84.8 µM
same,EC50,[5],35 µM
Oc1ccc(-c2c(-c3cc(O)cc(O)c3)sc3ccccc23)cc1,CC50,[9],131 µM
same,EC50,[5],34.4 µM
Oc1ccc(-c2oc3ccccc3c2-c2cc(O)cc(O)c2)cc1,CC50,[9],108 µM
same,EC50,[5],65.1 µM
Oc1ccc(-c2sc3ccccc3c2-c2cc(O)cc(O)c2)cc1,CC50,[9],118 µM
same,EC50,[5],45.1 µM
Oc1ccc(-c2ncc(-c3cc(O)cc(O)c3)cn2)cc1,EC50,[5],> 75 µM
Oc1ccc(-c2cnc(-c3cc(O)cc(O)c3)nc2)cc1,EC50,[5],> 75 µM
Oc1ccc(-c2cc(-c3cc(O)cc(O)c3)on2)cc1,EC50,[5],> 75 µM
Oc1ccc(-c2ccc(-c3cc(O)cc(O)c3)cc2)cc1,CC50,[9],179 µM
same,EC50,[5],8.8 µM
O=Cc1ccc2c(c1)C(c1cc(O)cc3c1[C@H](c1cc(O)cc(O)c1)[C@@H](c1ccc(O)cc1)O3)[C@H](c1ccc(O)cc1)O2 (stereo partly specified),EC50,[10],8.48 µM
same,CC50,[11],> 400 µM
O=S(=O)([O-])O[C@H]1[C@H](O)[C@@H](O)[C@H](Oc2cc(O)cc(/C=C\c3ccc(O)cc3)c2)O[C@@H]1CO.[Na+],CC50,[12],98.8 µg/mL
same,EC50,[13],84.8 µg/mL
same,selectivity ratio,[14],1.17
O=S(=O)([O-])Oc1cc(/C=C/c2ccc(O)cc2)cc(O[C@@H]2O[C@H](CO)[C@@H](O)[C@H](O)[C@H]2O)c1.[Na+],CC50,[12],527 µg/mL
same,EC50,[13],89.7 µg/mL
same,selectivity ratio,[14],5.87
COc1cc([C@H]2Oc3c(ccc(/C=C/c4cc(O)cc(O)c4)c3OC)[C@@H]2c2cc(O)cc(O)c2)ccc1O,IC50,[1],12 µg/mL
same,selectivity ratio,[2],9.6
OC[C@H]1O[C@@H](Oc2cc(O)cc(/C=C/c3ccc(O)cc3)c2O[C@@H]2O[C@H](CO)[C@@H](O)[C@H](O)[C@H]2O)[C@H](O)[C@@H](O)[C@@H]1O,CC50,[12],> 200 µg/mL
same,EC50,[13],176 µg/mL
same,selectivity ratio,[14],> 1.13
O=S(=O)([O-])O[C@H]1[C@H](Oc2cc(O)cc(/C=C/c3ccc(O)cc3)c2)O[C@H](CO)[C@@H](O)[C@@H]1O.[Na+],CC50,[12],> 2000 µg/mL
same,EC50,[13],153 µg/mL
same,selectivity ratio,[14],> 13
CC(=O)Oc1ccc(/C=C/c2cc(OC(C)=O)cc3c2C(c2cc(OC(C)=O)cc(OC(C)=O)c2)C(c2ccc(OC(C)=O)cc2)O3)cc1 (stereo unspecified),CC50,[15],> 10 µM
same,EC50,[16],2.37 µM
same,EC50,[17],10.4 µM
same,EC50,[18],4.7 µM
Nc1ccc(/N=N/c2ccc(/C=C/c3ccc(/N=N/c4ccc(N)c5ccc(S(=O)(=O)O)cc45)cc3S(=O)(=O)O)c(S(=O)(=O)O)c2)c2ccc(S(=O)(=O)O)cc12,IC50,[3],3.2 µM
same,IC50,[4],3.2 µM
same,EC50,[6],15.3 µM
same,CC50,[7],> 100 µM
same,selectivity ratio,[8],> 6.5
Oc1ccc([C@@H]2c3c(O)cc(O)cc3[C@H]3c4c(cc(O)cc4[C@@H]2O)O[C@@H]3c2ccc(O)cc2)cc1,EC50,[19],5.74 µM
same,CC50,[20],> 10 µM
OC[C@H]1O[C@@H](Oc2cc(O)cc(-c3cc4ccc(O)cc4o3)c2)[C@H](O)[C@@H](O)[C@@H]1O,IC50,[21],2.5 µg/mL
same,IC50,[22],2.5 µg/mL
same,IC50,[23],2.5 µg/mL
Oc1ccc([C@@H]2c3c(O)cc(O)cc3[C@@H]3c4c(cc(O)c5c4[C@@H]2[C@H](c2ccc(O)cc2)[C@H]5c2cc(O)cc(O)c2)O[C@H]3c2ccc(O)cc2)cc1,EC50,[10],0.57 µM
same,CC50,[11],> 1000 µM
O=S(=O)([O-])OC[C@H]1O[C@@H](Oc2cc(O)cc(/C=C/c3ccc(O)cc3)c2)[C@H](O)[C@@H](O)[C@@H]1O.[Na+],CC50,[12],746 µg/mL
same,EC50,[13],> 200 µg/mL
same,selectivity ratio,[14],< 3.73
Oc1ccc(/C=C/c2cc(O)cc3c2[C@@H](c2cc(O)cc4c2[C@H](c2cc(O)cc5c2[C@@H](c2cc(O)cc(O)c2)[C@H](c2ccc(O)cc2)O5)[C@@H](c2ccc(O)cc2)O4)[C@H](c2ccc(O)cc2)O3)cc1,CC50,[11],8.4 µM
CCOc1ccc(/N=N/c2ccc(/C=C/c3ccc(/N=N/c4ccc(OCC)cc4)cc3S(=O)(=O)O)c(S(=O)(=O)O)c2)cc1,IC50,[3],1.1 µM
same,IC50,[4],0.5 µM
same,EC50,[6],0.6 µM
same,CC50,[7],> 100 µM
same,selectivity ratio,[8],> 166
O=S(=O)([O-])O[C@H]1[C@H](O)[C@@H](O)[C@H](Oc2cc(O)cc(/C=C/c3ccc(O)cc3)c2)O[C@@H]1CO.[Na+],CC50,[12],813 µg/mL
same,EC50,[13],> 200 µg/mL
same,selectivity ratio,[14],< 4.06
O=S(=O)([O-])Oc1ccc(/C=C/c2cc(O)cc(O[C@@H]3O[C@H](CO)[C@@H](O)[C@H](O)[C@H]3O)c2)cc1.[Na+],CC50,[12],> 2000 µg/mL
same,EC50,[13],> 200 µg/mL
Oc1ccc(-c2ccc(-c3cc(O)cc(O)c3)[nH]2)cc1,EC50,[5],> 75 µM
Oc1ccc(/C=C/c2cc(O)cc3c2C(c2cc(O)cc(O)c2)C(c2ccc(O)cc2)O3)cc1 (racemic),CC50,[15],> 10 µM
same,EC50,[16],0.2 µM
same,EC50,[17],1.7 µM
same,EC50,[18],9.3 µM
CC(C)=CCc1c(O)cc(-c2cc3ccc(O)cc3o2)cc1O [MORACIN C],IC50,[21],2.5 µg/mL
same,IC50,[22],2.5 µg/mL
same,IC50,[23],2.5 µg/mL
Oc1cc(O)cc(-c2cc3ccc(O)cc3o2)c1 [MORACIN M],IC50,[21],2.5 µg/mL
same,IC50,[22],2.5 µg/mL
same,IC50,[23],2.5 µg/mL
CC1=C[C@@H](c2c(O)cc(-c3cc4ccc(O)cc4o3)cc2O)[C@@H](C(=O)c2ccc(O)cc2O)[C@H](c2ccc(O)cc2O)C1 [MULBERROFURAN C],IC50,[21],2.5 µg/mL
same,IC50,[22],2.5 µg/mL
same,IC50,[23],2.5 µg/mL
OC[C@H]1O[C@@H](Oc2cc(O)cc(/C=C/c3ccc(O)cc3)c2)[C@H](O)[C@@H](O)[C@@H]1O [PICEID],CC50,[12],> 200 µg/mL
same,EC50,[13],> 200 µg/mL
NC(=O)c1ncn([C@@H]2O[C@H](CO)[C@@H](O)[C@H]2O)n1 [RIBAVIRIN],IC50,[1],5.54 µg/mL
Oc1ccc([C@H]2c3c(O)cc(O)cc3[C@H]3c4c(cc(O)cc4[C@@H]2c2cc(/C=C/c4cc(O)cc5c4[C@H](c4cc(O)cc(O)c4)[C@@H](c4ccc(O)cc4)O5)ccc2O)O[C@@H]3c2ccc(O)cc2)cc1 [VITISIN A],EC50,[10],0.27 µM
same,CC50,[11],22.4 µM
same,EC50,[19],0.035 µM
same,CC50,[20],> 10 µM
